Among the test systems are OVCAR-8; SK-MEL-2; T47D; NCI-H23; SK-OV-3; MDA-MB-231; A498; CAKI-1; PC-3; U-251; NCI-H460; SK-MEL-5; HOP-92; SW-620; SK-MEL-28; RXF 393; M14; SNB-75; HCC 2998; MCF7.
Common to all, as to assay: growth of human tumour cells (NCI), 48 h

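Dose response: 5 concentrations. Exposure: 48 h. Format: 96-well plates. Endpoint: linear interpolation; highest concentration if not reached. Abbreviation: GI50, concentration required for 50% inhibition of growth.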 Activity calls are given as the source filed them. Rule as the data show it: active = GI50 up to about 1.1 µM and inactive = higher. Where only a bound is given, the exact number is not on record here.

Regarding `c1ccc(-c2sc(-c3ccccc3)c3c2C2CCC3C2)cc1`, the GI50 was 32.9 µM (inactive) with OVCAR-8; 19.2 µM (inactive) in the assay on SK-MEL-2; 38.7 µM (inactive) in the assay with T47D; 33.5 µM (inactive) with NCI-H23; 64 µM (inactive) with SK-OV-3; 27.6 µM (inactive) in the assay with MDA-MB-231. Moreover, the GI50 was 53.3 µM (inactive) in the assay on A498; 49.9 µM (inactive) in the assay on CAKI-1; 25.5 µM (inactive) in the assay on PC-3; 38.2 µM (inactive) in the assay with U-251; 28.9 µM (inactive) in the assay on NCI-H460; 20 µM (inactive) in the assay on SK-MEL-5. Besides, the GI50 in the assay on HOP-92 was 12.6 µM (inactive); with SW-620 it was 43.3 µM (inactive); in the assay on SK-MEL-28 it was 49 µM (inactive); with RXF 393, 24.3 µM (inactive); in the assay on M14 it was 35.3 µM (inactive).

For `Cc1cc(C(=O)CSC(=S)SC(C)(C)C)ccc1Cl`, the GI50 in the assay on OVCAR-8 is 32.1 µM (inactive); in the assay with SK-MEL-2, 19.9 µM (inactive); with NCI-H23 it was 29.5 µM (inactive); in the assay with SK-OV-3, 34.1 µM (inactive); with MDA-MB-231, 19.7 µM (inactive); in the assay with A498 it was 16.3 µM (inactive). Besides, the GI50 is 34.2 µM (inactive) in the assay on CAKI-1; 18.2 µM (inactive) in the assay with SNB-75; 29.8 µM (inactive) with PC-3; 15.1 µM (inactive) with U-251; 14.7 µM (inactive) in the assay on NCI-H460; 16.7 µM (inactive) in the assay on HCC 2998. The GI50 with MCF7 is 25.6 µM (inactive); in the assay with SK-MEL-5 it was 17.8 µM (inactive); with HOP-92 it was 24.8 µM (inactive); in the assay on SW-620, 23.2 µM (inactive); with SK-MEL-28, 19.8 µM (inactive); in the assay on RXF 393, 13.4 µM (inactive). For the same molecule, the GI50 in the assay on M14 was 16.4 µM (inactive).

`c1csc(-c2ccc(-c3ccc(-c4ccc(-c5cccs5)s4)s3)s2)c1`: the GI50 in the assay with OVCAR-8, with NCI-H23, with SK-OV-3, with A498, in the assay with CAKI-1 and with SNB-75 was > 100 µM (inactive) in each case. Moreover, the GI50 is > 100 µM (inactive) with U-251; > 100 µM (inactive) with NCI-H460; > 100 µM (inactive) in the assay on HCC 2998; 8.36 µM (inactive) in the assay with MCF7; > 100 µM (inactive) in the assay on SK-MEL-5; > 100 µM (inactive) with HOP-92. For the same molecule, the GI50 was > 100 µM (inactive) with SW-620, 56.5 µM (inactive) in the assay on RXF 393 and 26.9 µM (inactive) with M14.

`CC1(C)/C(=N\NC(N)=O)C2CCC1C2` (stereo not given): the GI50 with OVCAR-8, in the assay on SK-MEL-2, in the assay with T47D, in the assay with NCI-H23, in the assay with SK-OV-3 and with CAKI-1 was > 100 µM (inactive) in each case. Further, the GI50 in the assay on SNB-75, with PC-3, with U-251, in the assay with NCI-H460, with MCF7 and with SK-MEL-5 was > 100 µM (inactive) throughout. Besides, the GI50 in the assay with HOP-92, in the assay on SW-620, in the assay on SK-MEL-28 and in the assay on M14 was > 100 µM (inactive) throughout.

For `c1ccc(Nc2nnc(CCCCCCCCc3nnc(Nc4ccccc4)o3)o2)cc1`, the GI50 in the assay with OVCAR-8, in the assay with SK-MEL-2, in the assay on NCI-H23, with SK-OV-3, in the assay with MDA-MB-231 and in the assay on A498 was > 100 µM (inactive) throughout. The GI50 in the assay with CAKI-1 was > 100 µM (inactive); in the assay on SNB-75, > 100 µM (inactive); with PC-3 it was > 100 µM (inactive); in the assay with U-251 it was > 100 µM (inactive); in the assay with NCI-H460, > 100 µM (inactive); in the assay on HCC 2998 it was 51.6 µM (inactive). Further, the GI50 in the assay on MCF7, in the assay with SK-MEL-5, in the assay with SW-620, in the assay with SK-MEL-28, in the assay with RXF 393 and in the assay on M14 was > 100 µM (inactive) in each case.

Take `CCOC(=O)C1(C(=O)OCC)C[C@@H](C)[C@@H](O)C1`: the GI50 in the assay with OVCAR-8, in the assay on SK-MEL-2, in the assay on NCI-H23, in the assay on SK-OV-3, with MDA-MB-231 and in the assay with A498 was > 100 µM (inactive) each time. Also, the GI50 is > 100 µM (inactive) in the assay on CAKI-1; 75.7 µM (inactive) with SNB-75; > 100 µM (inactive) in the assay on PC-3; > 100 µM (inactive) in the assay on U-251; > 100 µM (inactive) with NCI-H460; > 100 µM (inactive) with MCF7. In addition, the GI50 in the assay with SK-MEL-5, with HOP-92, with SW-620, in the assay on SK-MEL-28, in the assay with RXF 393 and in the assay with M14 was > 100 µM (inactive) throughout.

`CC(C)C(=O)/C=C/S/C=C/C(=O)C(C)C`: the GI50 with OVCAR-8 was 2.7 µM (inactive); in the assay on SK-MEL-2, 23.4 µM (inactive); with T47D, 5.16 µM (inactive); with NCI-H23 it was 2.59 µM (inactive); with SK-OV-3, 41.8 µM (inactive); in the assay with MDA-MB-231, 3.7 µM (inactive). The GI50 was 3.56 µM (inactive) in the assay on CAKI-1; 45.1 µM (inactive) with SNB-75; 18.6 µM (inactive) with U-251; 10.8 µM (inactive) with NCI-H460; 23 µM (inactive) in the assay on MCF7; 5.83 µM (inactive) in the assay on SK-MEL-5. The GI50 with SW-620 was 3.33 µM (inactive); with SK-MEL-28 it was 4.28 µM (inactive); in the assay with RXF 393, 4.54 µM (inactive); in the assay on M14 it was 3.92 µM (inactive).

Turning to `O=C(O)C[n+]1cn(NC(=O)Cc2ccccc2)cn1`, the GI50 with OVCAR-8, in the assay with T47D, in the assay on NCI-H23, in the assay on SK-OV-3, in the assay with MDA-MB-231 and in the assay on A498 was > 10 µM (inactive) throughout. The GI50 with CAKI-1, in the assay on SNB-75, with U-251, in the assay with NCI-H460, in the assay on HCC 2998 and with MCF7 was > 10 µM (inactive) each time. The GI50 with SK-MEL-5, in the assay on HOP-92, in the assay with SW-620, with SK-MEL-28 and in the assay on M14 was > 10 µM (inactive) in each case.

In the case of `CC(O)CCCCC(O)CCC[C@H](O)[C@H]1CCC([C@H]2CCC([C@@H](O)CCCCCCCCCCCCC3=C[C@H](C)OC3=O)O2)O1` (stereo not given in full), the GI50 in the assay on OVCAR-8 is 10.1 µM (inactive); in the assay with SK-MEL-2, 8.77 µM (inactive); in the assay with NCI-H23, 8.65 µM (inactive); in the assay with SK-OV-3 it was 11.7 µM (inactive); in the assay on MDA-MB-231 it was 10.4 µM (inactive); in the assay with CAKI-1 it was 9.84 µM (inactive). In addition, the GI50 with SNB-75 was 9.12 µM (inactive); with PC-3, 10.7 µM (inactive); in the assay on U-251 it was 10.8 µM (inactive); in the assay with NCI-H460 it was 8.22 µM (inactive); in the assay with HCC 2998, 13.2 µM (inactive); in the assay with MCF7 it was 5.25 µM (inactive). The GI50 in the assay with SK-MEL-5 is 7.93 µM (inactive); with HOP-92 it was 11.4 µM (inactive); in the assay with SW-620, 12.8 µM (inactive); in the assay on SK-MEL-28, 13.5 µM (inactive); in the assay on RXF 393, 12.1 µM (inactive); in the assay with M14, 11.4 µM (inactive).

In the case of `COC(=O)C1CC(=O)O[C@H]1c1ccc(OC)c(OC)c1` (stereo not given in full), the GI50 in the assay on OVCAR-8, in the assay with SK-MEL-2, in the assay on NCI-H23, with SK-OV-3, in the assay on A498 and in the assay on CAKI-1 was > 100 µM (inactive) each time. The GI50 in the assay on SNB-75, in the assay on U-251, in the assay with NCI-H460, with HCC 2998, in the assay with SK-MEL-5 and with HOP-92 was > 100 µM (inactive) throughout. In addition, the GI50 in the assay with SW-620, in the assay with SK-MEL-28, in the assay with RXF 393 and in the assay with M14 was > 100 µM (inactive) in each case.

As for `Oc1cc(-c2cccc(Cl)c2)nc2ncccc12`, the GI50 in the assay on OVCAR-8 was 0.377 µM (active); with SK-MEL-2 it was 0.197 µM (active); in the assay on NCI-H23, 1.54 µM (inactive); in the assay with SK-OV-3 it was 0.163 µM (active); in the assay with MDA-MB-231, 0.57 µM (active); in the assay on A498, 0.53 µM (active). Further, the GI50 in the assay on CAKI-1 was 0.101 µM (active); in the assay on SNB-75 it was 0.971 µM (active); in the assay with PC-3, 0.0248 µM (active); with U-251, 0.106 µM (active); in the assay on NCI-H460, 0.0605 µM (active); in the assay with HCC 2998 it was 0.0771 µM (active). Moreover, the GI50 was 0.122 µM (active) with MCF7; 0.0387 µM (active) with SK-MEL-5; 21 µM (inactive) with HOP-92; 0.114 µM (active) in the assay with SW-620; 0.183 µM (active) in the assay on SK-MEL-28; 0.219 µM (active) in the assay with RXF 393. Also, the GI50 with M14 is 0.0845 µM (active).

`COc1ccc2cc3[n+](cc2c1OC)CCc1cc2c(cc1-3)OCO2` [BERBERINE CHLORIDE]: the GI50 with OVCAR-8 is 12.7 µM (inactive); in the assay on SK-MEL-2, 25.3 µM (inactive); in the assay on T47D it was 10.3 µM (inactive); in the assay with NCI-H23, 7.35 µM (inactive); with SK-OV-3 it was 84.5 µM (inactive); with MDA-MB-231, 36.1 µM (inactive). Further, the GI50 was 95.9 µM (inactive) with A498; 36.5 µM (inactive) in the assay with SNB-75; 26.9 µM (inactive) with PC-3; 12.2 µM (inactive) with NCI-H460; 4.95 µM (inactive) in the assay on SK-MEL-5; 36.7 µM (inactive) in the assay on HOP-92. Further, the GI50 was 40.6 µM (inactive) with SW-620, 22.2 µM (inactive) with SK-MEL-28, 68.5 µM (inactive) in the assay with RXF 393 and 22.8 µM (inactive) in the assay with M14.

Source of the values: ChEMBL document CHEMBL1201862, “PubChem BioAssay data set” (2004).
